Laboratory results from publication PMC12298351, “Novel 3,19-(N-Phenyl-3-(4-fluorophenyl)-pyrazole) Acetal of Andrographolide Promotes Cell Cycle Arrest and Apoptosis in MDA-MB-231 Breast Cancer Cells” (Pharmaceuticals, 2025).

Key:
RXF 393 = details: RXF 393, Renal; for CC50: read-out: 50% lethal concentration (LC50)
NCI-H226 = details: for Total growth inhibition (TGI) / CC50: NCI-H226, Non-Small Cell Lung; for GI50: NCI-H226, Non-Small-Cell Lung; for CC50: read-out: 50% lethal concentration (LC50)
BT-549 = assay type: cell-based; details: BT-549, Breast
786-0 = details: 786-0, Renal; for CC50: read-out: 50% lethal concentration (LC50)
K-562 = details: K-562, Leukemia; for CC50: read-out: 50% lethal concentration (LC50)
COLO 205 = details: COLO 205, Colon
M14 = assay type: cell-based; details: M14, Melanoma
SF-295 = details: SF-295, CNS; for CC50: read-out: 50% lethal concentration (LC50)
[1] = DPPH radical scavenging assay; details: 25 µM test compound, 0.1 mM DPPH, acetonitrile, 30 min
Procedure, shortened: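 Compounds at 25 µM in acetonitrile mixed 1:2 with 0.1 mM DPPH in acetonitrile, kept 30 min in the dark at room temperature. Absorbance read at 517 nm; % scavenging = (Ac − As)/Ac × 100, Ac being DPPH blank. Ascorbic acid positive control.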

OVCAR-4 = assay type: cell-based; details: OVCAR-4, Ovarian; for CC50: read-out: 50% lethal concentration (LC50)
SN12C = details: for GI50 / Total growth inhibition (TGI): Renal; for CC50: read-out: 50% lethal concentration (LC50), Renal
CCRF-CEM = details: for CC50: read-out: 50% lethal concentration (LC50), Leukemia
HT29 = details: HT29, Colon; for CC50: read-out: 50% lethal concentration (LC50)
UO-31 = details: UO-31, Renal; for CC50: read-out: 50% lethal concentration (LC50)
NCI/ADR-RES = details: for GI50 / Total growth inhibition (TGI): Ovarian
RPMI-8226 = details: RPMI-8226, Leukemia; for CC50: read-out: 50% lethal concentration (LC50)
DU-145 = details: DU-145, Prostate
OVCAR-5 = details: OVCAR-5, Ovarian; for CC50: read-out: 50% lethal concentration (LC50)
OVCAR-8 = details: OVCAR-8, Ovarian; for CC50: read-out: 50% lethal concentration (LC50)
MCF7 = details: MCF7, Breast; for CC50: read-out: 50% lethal concentration (LC50)
SW-620 = details: SW-620, Colon; for CC50: read-out: 50% lethal concentration (LC50)
NCI-H23 = details: for Total growth inhibition (TGI) / CC50: NCI-H23, Non-Small Cell Lung; for GI50: NCI-H23, Non-Small-Cell Lung; for CC50: read-out: 50% lethal concentration (LC50)
SK-MEL-5 = details: SK-MEL-5, Melanoma; for CC50: read-out: 50% lethal concentration (LC50)
SK-MEL-2 = details: SK-MEL-2, Melanoma
SK-OV-3 = details: SK-OV-3, Ovarian; for CC50: read-out: 50% lethal concentration (LC50)
UACC-62 = details: UACC-62, Melanoma; for CC50: read-out: 50% lethal concentration (LC50)
SNB-19 = assay type: cell-based; details: SNB-19, CNS
A549/ATCC = details: for Total growth inhibition (TGI): Non-Small Cell Lung; for GI50: Non-Small-Cell Lung; for CC50: read-out: 50% lethal concentration (LC50), Non-Small Cell Lung

SMILES: C=C1CCC2C3(C)COC(c4cn(-c5ccccc5)nc4-c4ccc(Cl)cc4)OC3CCC2(C)C1CC=C1C(=O)OCC1O (centres unmarked) [1g]
- GI50 (RXF 393): 1.79 µM
- Total growth inhibition (TGI) (RXF 393): 3.37 µM
- CC50 (RXF 393): 6.33 µM
- Total growth inhibition (TGI) (NCI-H226): 3.05 µM
- GI50 (NCI-H226): 1.55 µM
- CC50 (NCI-H226): 5.99 µM
- GI50 (BT-549): 1.49 µM
- Total growth inhibition (TGI) (BT-549): 3.37 µM
- GI50 (786-0): 1.99 µM
- Total growth inhibition (TGI) (786-0): 4.17 µM
- CC50 (786-0): 8.7 µM
- GI50 (K-562): 3.67 µM
- Total growth inhibition (TGI) (K-562): > 100 µM
- CC50 (K-562): > 100 µM
- GI50 (COLO 205): 2.3 µM
- Total growth inhibition (TGI) (COLO 205): 5.58 µM
- GI50 (M14): 1.84 µM
- Total growth inhibition (TGI) (M14): 3.69 µM
- GI50 (SF-295): 1.5 µM
- Total growth inhibition (TGI) (SF-295): 2.88 µM
- CC50 (SF-295): 5.51 µM
- % DPPH radical scavenging activity [1]: 57.45%
- GI50 (OVCAR-4): 2.03 µM
- Total growth inhibition (TGI) (OVCAR-4): 5.15 µM
- CC50 (OVCAR-4): > 100 µM
- GI50 (SN12C): 1.67 µM
- Total growth inhibition (TGI) (SN12C): 3.57 µM
- CC50 (SN12C): 7.61 µM
- GI50 (CCRF-CEM; Leukemia): 0.92 µM
- Total growth inhibition (TGI) (CCRF-CEM; Leukemia): > 100 µM
- CC50 (CCRF-CEM): > 100 µM
- GI50 (HT29): 1.69 µM
- Total growth inhibition (TGI) (HT29): 4.64 µM
- CC50 (HT29): > 100 µM
- GI50 (UO-31): 1.99 µM
- Total growth inhibition (TGI) (UO-31): 4.17 µM
- CC50 (UO-31): 5.6 µM
- GI50 (NCI/ADR-RES): 1.83 µM
- Total growth inhibition (TGI) (NCI/ADR-RES): 4.24 µM
- CC50 (NCI/ADR-RES; read-out: 50% lethal concentration (LC50), Ovarian): 9.87 µM
- GI50 (RPMI-8226): 2.46 µM
- Total growth inhibition (TGI) (RPMI-8226): > 100 µM
- CC50 (RPMI-8226): > 100 µM
- GI50 (DU-145): 2.05 µM
- Total growth inhibition (TGI) (DU-145): 4.1 µM
- GI50 (OVCAR-5): 1.98 µM
- Total growth inhibition (TGI) (OVCAR-5): 5.38 µM
- CC50 (OVCAR-5): > 100 µM
- GI50 (OVCAR-8): 1.95 µM
- Total growth inhibition (TGI) (OVCAR-8): 4.97 µM
- CC50 (OVCAR-8): > 100 µM
- GI50 (MCF7): 1.51 µM
- Total growth inhibition (TGI) (MCF7): > 100 µM
- CC50 (MCF7): 42.8 µM
- Total growth inhibition (TGI) (SW-620): > 100 µM
- CC50 (SW-620): > 100 µM
- Total growth inhibition (TGI) (NCI-H23): 3.59 µM
- GI50 (NCI-H23): 1.73 µM
- CC50 (NCI-H23): 7.45 µM
- GI50 (SK-MEL-5): 1.7 µM
- Total growth inhibition (TGI) (SK-MEL-5): 3.11 µM
- CC50 (SK-MEL-5): 5.69 µM
- GI50 (SK-MEL-2): 1.77 µM
- Total growth inhibition (TGI) (SK-MEL-2): 3.25 µM
- GI50 (SK-OV-3): 3.04 µM
- Total growth inhibition (TGI) (SK-OV-3): 1.67 µM
- CC50 (SK-OV-3): > 100 µM
- GI50 (UACC-62): 1.68 µM
- Total growth inhibition (TGI) (UACC-62): 3.27 µM
- CC50 (UACC-62): 6.39 µM
- GI50 (SNB-19): 1.4 µM
- Total growth inhibition (TGI) (A549/ATCC): 36.3 µM
- GI50 (A549/ATCC): 3.57 µM
- CC50 (A549/ATCC): > 100 µM

SMILES: C=C1CCC2C3(C)COC(c4cn(-c5ccccc5)nc4-c4ccc(Br)cc4)OC3CCC2(C)C1CC=C1C(=O)OCC1O (centres unmarked) [1h]
- GI50 (RXF 393): 1.71 µM
- Total growth inhibition (TGI) (RXF 393): 3.23 µM
- CC50 (RXF 393): 6.11 µM
- Total growth inhibition (TGI) (NCI-H226): 2.8 µM
- GI50 (NCI-H226): 1.36 µM
- CC50 (NCI-H226): 5.77 µM
- GI50 (BT-549): 1.47 µM
- Total growth inhibition (TGI) (BT-549): 3.5 µM
- GI50 (786-0): 2.07 µM
- Total growth inhibition (TGI) (786-0): 4.49 µM
- CC50 (786-0): 9.76 µM
- GI50 (K-562): 2.07 µM
- CC50 (K-562): > 100 µM
- GI50 (COLO 205): 1.7 µM
- Total growth inhibition (TGI) (COLO 205): 3.51 µM
- GI50 (M14): 1.71 µM
- Total growth inhibition (TGI) (M14): 3.55 µM
- GI50 (SF-295): 1.54 µM
- Total growth inhibition (TGI) (SF-295): 2.93 µM
- CC50 (SF-295): 5.57 µM
- % DPPH radical scavenging activity [1]: 57.51%
- GI50 (OVCAR-4): 1.89 µM
- Total growth inhibition (TGI) (OVCAR-4): 4.27 µM
- CC50 (OVCAR-4): > 100 µM
- GI50 (SN12C): 1.51 µM
- Total growth inhibition (TGI) (SN12C): 3.37 µM
- CC50 (SN12C): 7.48 µM
- GI50 (CCRF-CEM; Leukemia): 0.48 µM
- CC50 (CCRF-CEM): > 100 µM
- GI50 (HT29): 2.16 µM
- Total growth inhibition (TGI) (HT29): 6.51 µM
- CC50 (HT29): > 100 µM
- GI50 (UO-31): 2.07 µM
- Total growth inhibition (TGI) (UO-31): 2.52 µM
- CC50 (UO-31): 5.34 µM
- GI50 (NCI/ADR-RES): 1.83 µM
- Total growth inhibition (TGI) (NCI/ADR-RES): 4.19 µM
- GI50 (RPMI-8226): 1.28 µM
- Total growth inhibition (TGI) (RPMI-8226): > 100 µM
- CC50 (RPMI-8226): > 100 µM
- GI50 (DU-145): 1.77 µM
- Total growth inhibition (TGI) (DU-145): 3.59 µM
- CC50 (DU-145; read-out: 50% lethal concentration (LC50)): 7.28 µM
- GI50 (OVCAR-5): 1.93 µM
- Total growth inhibition (TGI) (OVCAR-5): 5.08 µM
- CC50 (OVCAR-5): > 100 µM
- GI50 (OVCAR-8): 1.55 µM
- Total growth inhibition (TGI) (OVCAR-8): 3.4 µM
- CC50 (OVCAR-8): 7.45 µM
- GI50 (MCF7): 1.49 µM
- Total growth inhibition (TGI) (MCF7): 4.81 µM
- CC50 (MCF7): 72 µM
- Total growth inhibition (TGI) (SW-620): > 100 µM
- CC50 (SW-620): > 100 µM
- Total growth inhibition (TGI) (NCI-H23): 3.62 µM
- GI50 (NCI-H23): 1.71 µM
- CC50 (NCI-H23): 7.67 µM
- GI50 (SK-MEL-5): 1.6 µM
- Total growth inhibition (TGI) (SK-MEL-5): 2.96 µM
- CC50 (SK-MEL-5): 5.44 µM
- GI50 (SK-MEL-2): 1.76 µM
- Total growth inhibition (TGI) (SK-MEL-2): 3.18 µM
- GI50 (SK-OV-3): 2.03 µM
- Total growth inhibition (TGI) (SK-OV-3): 8.27 µM
- CC50 (SK-OV-3): > 100 µM
- GI50 (UACC-62): 1.58 µM
- Total growth inhibition (TGI) (UACC-62): 3.13 µM
- CC50 (UACC-62): 6.2 µM
- GI50 (SNB-19): 1.47 µM
- Total growth inhibition (TGI) (A549/ATCC): 51.6 µM
- GI50 (A549/ATCC): 3.1 µM
- CC50 (A549/ATCC): > 100 µM
